Assay results from patent US9428439B2, “Hydrobenzamide derivatives as inhibitors of Hsp90” (priority 2006, dated 2016).
Entries after “also recorded” stand apart in the source; their conditions may differ. Read-outs that look alike come from different tables or passages of the source. Each block holds one compound with its values, some of them ahead of it.

Legend:
Assay type in all cases: physicochemical
[1] = Solid-state stability of crystalline forms (XRPD); conditions: for stability in air: XRPD
Excerpt: Samples for X-ray powder diffraction (XRPD) data collection were gently ground by marble mortar and loaded into a crystallographic capillary (from Hampton Research, Quartz or Glass Type 10, 0.4 or 0.7 mm diameter). Diffraction patterns were collected at room temperature using CuKα radiation (λ=1.5418 Å) from a Rigaku rotating anode RU3HR, Osmic blue confocal optics, ¼ c goniometer and a Rigaku HTC image plate detector. 2D Images were collected while spinning φ axis with a detector to crystal distance of 250 mm. Data collection was controlled by CrystalClear software and 2D images were converted to 1D plot (2θ vs. Intensity) by Datasqueeze (intensity averaged over the azimuthal angle 0≦χ≦360° for […] 3-30° in 0.02° steps). In house program AstexXRPD was used for manipulation and visualisation of 1D XRPD patterns.

Hygroscopicity = assay: Hygroscopicity
Rate of solubility = conditions: compared with the free base and other salts tested

Structure (SMILES): CC(C)c1cc(C(=O)N2Cc3ccc(CN4CCN(C)CC4)cc3C2)c(O)cc1O [Form FB2, (2,4-dihydroxy-5-isopropyl-phenyl)-[5-(4-methyl-piperazin-1-ylmethyl)-1,3-dihydro-isoindol-2-yl]-methanone]
stability in air ([1]; listed as FB2): unstable in air and converts to form FB3; also recorded: changed to crystal form FB3

Structure (SMILES): CC(C)c1cc(C(=O)N2Cc3ccc(CN4CCN(C)CC4)cc3C2)c(O)cc1O.Cl [Form FH5, (2,4-dihydroxy-5-isopropyl-phenyl)-[5-(4-methyl-piperazin-1-ylmethyl)-1,3-dihydro-isoindol-2-yl]-methanone hydrochloride salt]
stability in air ([1]; listed as FH5, hydrochloride salt): unstable and dissolves in moist air

Structure (SMILES): CC(C)c1cc(C(=O)N2Cc3ccc(CN4CCN(C)CC4)cc3C2)c(O)cc1O [Form FB4, (2,4-dihydroxy-5-isopropyl-phenyl)-[5-(4-methyl-piperazin-1-ylmethyl)-1,3-dihydro-isoindol-2-yl]-methanone]
stability of the crystalline form (stable / unstable form) [1]: stable
stability in air ([1]; listed as FB4): stable in air

Structure (SMILES): CC(C)c1cc(C(=O)N2Cc3ccc(CN4CCN(C)CC4)cc3C2)c(O)cc1O.Cl [Form FH4, (2,4-dihydroxy-5-isopropyl-phenyl)-[5-(4-methyl-piperazin-1-ylmethyl)-1,3-dihydro-isoindol-2-yl]-methanone hydrochloride salt]
stability in air ([1]; listed as FH4, hydrochloride salt): unstable and disintegrates in air

Structure (SMILES): CC(C)c1cc(C(=O)N2Cc3ccc(CN4CCN(C)CC4)cc3C2)c(O)cc1O.Cl [Form FH3, (2,4-dihydroxy-5-isopropyl-phenyl)-[5-(4-methyl-piperazin-1-ylmethyl)-1,3-dihydro-isoindol-2-yl]-methanone hydrochloride salt]
stability at 40° C. and 75% RH [1]: stable in air and at 40 °C and 75% RH for at least one month
stability in air ([1]; listed as FH3, hydrochloride salt): stable in air

Structure (SMILES): CC(C)c1cc(C(=O)N2Cc3ccc(CN4CCN(C)CC4)cc3C2)c(O)cc1O [Form FB3, (2,4-dihydroxy-5-isopropyl-phenyl)-[5-(4-methyl-piperazin-1-ylmethyl)-1,3-dihydro-isoindol-2-yl]-methanone]
stability at 40° C. and 75% RH [1]: stable in air at 40 °C and in 75% relative humidity for at least one month; also recorded: stable in air and at 40 °C and 75% RH for at least one month
stability in air ([1]; listed as FB3): stable in air

Structure (SMILES): CC(C)c1cc(C(=O)N2Cc3ccc(CN4CCN(C)CC4)cc3C2)c(O)cc1O.Cl [Form FH1, (2,4-dihydroxy-5-isopropyl-phenyl)-[5-(4-methyl-piperazin-1-ylmethyl)-1,3-dihydro-isoindol-2-yl]-methanone hydrochloride salt]
hygroscopicity (Hygroscopicity): very hygroscopic and dissolves in air moisture
stability in air ([1]; listed as FH1, hydrochloride salt): unstable in air

Structure (SMILES): CC(C)c1cc(C(=O)N2Cc3ccc(CN4CCN(C)CC4)cc3C2)c(O)cc1O [Form FB6, (2,4-dihydroxy-5-isopropyl-phenyl)-[5-(4-methyl-piperazin-1-ylmethyl)-1,3-dihydro-isoindol-2-yl]-methanone]
stability in air ([1]; listed as FB6): stable in air; also recorded: stable on air

Structure (SMILES): CC(C)c1cc(C(=O)N2Cc3ccc(CN4CCN(C)CC4)cc3C2)c(O)cc1O [Form FB1, (2,4-dihydroxy-5-isopropyl-phenyl)-[5-(4-methyl-piperazin-1-ylmethyl)-1,3-dihydro-isoindol-2-yl]-methanone]
stability in air ([1]; listed as FB1): unstable in air and converts to form FB3; also recorded: converted completely to crystal form FB3

Structure (SMILES): CC(C)c1cc(C(=O)N2Cc3ccc(CN4CCN(C)CC4)cc3C2)c(O)cc1O.C[C@H](O)C(=O)O [(2,4-dihydroxy-5-isopropyl-phenyl)-[5-(4-methyl-piperazin-1-ylmethyl)-1,3-dihydro-isoindol-2-yl]-methanone L-lactate salt]
rate of solubility (Rate of solubility): better rate of solubility than the free base and other salts tested
hygroscopicity (Hygroscopicity): non-hygroscopic

Structure (SMILES): CC(C)c1cc(C(=O)N2Cc3ccc(CN4CCN(C)CC4)cc3C2)c(O)cc1O.Cl [Form FH2, (2,4-dihydroxy-5-isopropyl-phenyl)-[5-(4-methyl-piperazin-1-ylmethyl)-1,3-dihydro-isoindol-2-yl]-methanone hydrochloride salt]
stability in air ([1]; listed as FH2, hydrochloride salt): unstable in air; also recorded: transforms on air into form FH3; also recorded: conversion to form FH3

Structure (SMILES): CC(C)c1cc(C(=O)N2Cc3ccc(CN4CCN(C)CC4)cc3C2)c(O)cc1O [Form FB5, (2,4-dihydroxy-5-isopropyl-phenyl)-[5-(4-methyl-piperazin-1-ylmethyl)-1,3-dihydro-isoindol-2-yl]-methanone]
stability in air ([1]; listed as FB5): unstable in air; also recorded: transforms to FB6 in air; also recorded: conversion to form FB6

Further lines, with some results ahead:

stability at 40° C. and 75% RH ([1]; listed as FS6, sulphate salt): transforms into form FS3
stability in air ([1]; listed as FS6, sulphate salt): stable in air
stability of the crystalline form (stable / unstable form) ([1]; listed as FS6, sulphate salt): stable forms
Structure (SMILES): CC(C)c1cc(C(=O)N2Cc3ccc(CN4CCN(C)CC4)cc3C2)c(O)cc1O.O=S(=O)(O)O [Form FS6, (2,4-dihydroxy-5-isopropyl-phenyl)-[5-(4-methyl-piperazin-1-ylmethyl)-1,3-dihydro-isoindol-2-yl]-methanone sulphate salt]

stability of the crystalline form (stable / unstable form) ([1]; listed as FS5, sulphate salt): stable forms
stability of the crystalline form (stable / unstable form) ([1]; listed as FS53, sulphate salt): stable form
Structure (SMILES): CC(C)c1cc(C(=O)N2Cc3ccc(CN4CCN(C)CC4)cc3C2)c(O)cc1O.O=S(=O)(O)O [Form FS5, (2,4-dihydroxy-5-isopropyl-phenyl)-[5-(4-methyl-piperazin-1-ylmethyl)-1,3-dihydro-isoindol-2-yl]-methanone sulphate salt]

stability of the crystalline form (stable / unstable form) ([1]; listed as FL3): unstable form
Structure (SMILES): CC(C)c1cc(C(=O)N2Cc3ccc(CN4CCN(C)CC4)cc3C2)c(O)cc1O.C[C@H](O)C(=O)O [Form FL3, (2,4-dihydroxy-5-isopropyl-phenyl)-[5-(4-methyl-piperazin-1-ylmethyl)-1,3-dihydro-isoindol-2-yl]-methanone L-lactate salt]
stability in air ([1]; listed as FL3): transforms in air into form FL1; also recorded: conversion to form FL1

stability of the crystalline form (stable / unstable form) ([1]; listed as FS4, sulphate salt): stable form
Structure (SMILES): CC(C)c1cc(C(=O)N2Cc3ccc(CN4CCN(C)CC4)cc3C2)c(O)cc1O.O=S(=O)(O)O [Form FS4, (2,4-dihydroxy-5-isopropyl-phenyl)-[5-(4-methyl-piperazin-1-ylmethyl)-1,3-dihydro-isoindol-2-yl]-methanone sulphate salt]
stability in a dry environment ([1]; 20° C., 11% RH): transformation of form FS4 in a dry environment

stability of the crystalline form (stable / unstable form) ([1]; listed as FS3, sulphate salt): stable form
Structure (SMILES): CC(C)c1cc(C(=O)N2Cc3ccc(CN4CCN(C)CC4)cc3C2)c(O)cc1O.O=S(=O)(O)O [Form FS3, (2,4-dihydroxy-5-isopropyl-phenyl)-[5-(4-methyl-piperazin-1-ylmethyl)-1,3-dihydro-isoindol-2-yl]-methanone sulphate salt]

stability in air ([1]; listed as FL2): stable in air
stability of the crystalline form (stable / unstable form) ([1]; listed as FL2): stable forms
Structure (SMILES): CC(C)c1cc(C(=O)N2Cc3ccc(CN4CCN(C)CC4)cc3C2)c(O)cc1O.C[C@H](O)C(=O)O [Form FL2, (2,4-dihydroxy-5-isopropyl-phenyl)-[5-(4-methyl-piperazin-1-ylmethyl)-1,3-dihydro-isoindol-2-yl]-methanone L-lactate salt]

stability of the crystalline form (stable / unstable form) ([1]; listed as FS1, sulphate salt): unstable forms
Structure (SMILES): CC(C)c1cc(C(=O)N2Cc3ccc(CN4CCN(C)CC4)cc3C2)c(O)cc1O.O=S(=O)(O)O [Form FS1, (2,4-dihydroxy-5-isopropyl-phenyl)-[5-(4-methyl-piperazin-1-ylmethyl)-1,3-dihydro-isoindol-2-yl]-methanone sulphate salt]
stability in air ([1]; listed as FS1, sulphate salt): unstable on air and transforms to form FS3

stability in air ([1]; listed as FL): stable in air
stability of the crystalline form (stable / unstable form) ([1]; listed as FL1): stable forms
Structure (SMILES): CC(C)c1cc(C(=O)N2Cc3ccc(CN4CCN(C)CC4)cc3C2)c(O)cc1O.C[C@H](O)C(=O)O [Form FL1, (2,4-dihydroxy-5-isopropyl-phenyl)-[5-(4-methyl-piperazin-1-ylmethyl)-1,3-dihydro-isoindol-2-yl]-methanone L-lactate salt]
stability at 40° C. and 75% RH [1]: stable in air and at 40 °C and 75% RH for at least one month

stability at 40° C. and 75% RH ([1]; listed as FS2, sulphate salt): transforms to form FS4
stability of the crystalline form (stable / unstable form) ([1]; listed as FS2, sulphate salt): unstable forms
Structure (SMILES): CC(C)c1cc(C(=O)N2Cc3ccc(CN4CCN(C)CC4)cc3C2)c(O)cc1O.O=S(=O)(O)O [Form FS2, (2,4-dihydroxy-5-isopropyl-phenyl)-[5-(4-methyl-piperazin-1-ylmethyl)-1,3-dihydro-isoindol-2-yl]-methanone sulphate salt]
stability in air ([1]; listed as FS2, sulphate salt): unstable on air and transforms to form FS5
